{"source": "patent US20160108391A1", "about": "“REAGENT COMPOSITIONS HAVING PYRIDINE-CARBOXYLIC ACID-[…], AS WELL AS METHODS OF MAKING AND USING THE SAME” (Roche Diabetes Care, Inc., priority 2013, published 2016)", "system": "glucose dehydrogenase mutant 2", "conditions": "cNAD instead of NAD, increasing amounts of nicotinic acid", "procedure": "Methods: test elements with added nicotinic acid were prepared and analog to Example 1, but with adding coenzyme cNAD (see, Int'l Patent Application Publication No. WO 2007/012494) instead of NAD (same amount on molar basis).\nConsequently, test elements were stored: (a) in open vials at 85% r.h. and 35° C., or (b) in closed vials with desiccant at 35° C.", "data": [{"smiles": "O=C(O)c1cccnc1", "note": "[nicotinic acid, pyridine-3-carboxylic acid]", "values": [{"measurement": "stabilizing effect on remaining enzymatic activity, dry conditions", "setting": "closed vials with desiccant at 35° C., FIG. 3b", "value": "significant stabilizing effect"}, {"measurement": "stabilizing effect on remaining enzymatic activity, humid conditions", "setting": "open vials at 85% r.h. and 35° C., FIG. 3a", "value": "significant stabilizing effect"}]}]}
